Patent USRE50172E1, “In vitro maturation of a mammalian cumulus oocyte complex” (Vrije Universiteit Brussel, priority 2014, dated 2024)
“Also recorded” adds a separate entry of the source. No end group written: not given here.

Columns and labels:
Assay type in all cases: cell-based, mouse
[1] = system: Preovulatory COCs; test: Meiotic resumption after 18 hours, CNP-53 dose range (Example 5)
Experimental: The materials and methods used in this further example are accordingly in common with the materials and methods used in Example 4 but for the use of CNP-53 instead. Cumulus-oocyte complexes from 24-25 day-old mice were isolated from in vivo grown antral follicles post 48 h eCG stimulation. Mice were injected with 2.5 IU eCG when they were 22-23 days-old. Intact COCs were put in culture for a period of 18 hours in presence of the following doses of CNP-53: • Control (No CNP)* • 0.1 nM • 1 nM • 10 nM • 50 nM • 100 nM • 1 μM • Control 25 nM CNP-22*
*Two control conditions were included: 1) 25 nM CNP-22 (standard dose known and used in previous experiments to maintain meiotic arrest), 2) a control condition where CNP is not present in the culture media.
Differences in the rate of oocyte meiotic resumption (per meiotic stage) were assessed by ANOVA followed by a Tukey's Multiple Comparison Test, p<0.001. Percentages data were transformed (arcsine) before performing statistical analysis.

[2] = system: Pre-ovulatory COCs; test: Meiotic arrest of pre-ovulatory COCs cultured 18 hours with CNP-22 (Example 1)
Source text: (§1) For the collection of immature COCs, compact COCs of the first wave of follicular development were collected from small antral follicles of pre-pubertal mice (19-21 days-old), without prior gonadotropin administration. For the collection of pre-ovulatory COCs (controls), compact COCs were collected by puncturing large antral follicles of pre-pubertal female mice (25-27 days-old) following 48 hrs of priming with 2,5IU 2.5 IU equine Chronic Gonadotropin (eCG, Folligon, Intervet, Oss, The Netherlands). Collection medium consisted of Leibovitz L-15, containing 10% Heat-inactivated Foetal Bovine Serum (FBS), 100lU/ml 100 IU/ml penicillin, 100 μg/ml streptomycin (all from Life Technologies, Gent, Belgium) and supplemented with 200 μM 3-Isobutyl-1-methylxanthine (IBMX; Sigma, Schnelldorf, Germany) to prevent meiosis reinitiation during the period of collection and pre culture handling.
(§2) Basal culture medium for the culture of COCs (Pre-IVM and IVM phases) consisted of α-MEM, 2.5% FBS (both from Life Technologies, Gent, Belgium) and 5 ng/mL Insulin, 5 ug/mt ug/ml. Apo-Transferrin, 5 ng/mL Sodium selenite (All from Sigma, Schnelldorf, Germany).
(§3) At specified time-points oocytes were mechanically freed from compact or expanded cumulus cells by using a mouth controlled fine bore glass pipette. Meiotic reinitiation was analyzed by assessing the nuclear maturational stage under an inverted microscope equipped with a Hoffman modulation contrast system (Nikon, Tokyo, Japan). Nuclear maturation was scored as GV (Germinal vesicle stage), GVBD (when GV non visible), PB (first polar body observed in perivitelline space) or DEG (when the oocyte was degenerated).
(§4) Pre-ovulatory COCs, retrieved from gonadotropin-primed mice (aged 26-27 days-old), were placed in culture, for 18 hours, in presence of 0 (Control), 1, 10, 100 nM CNP-22 and in combination with 4 ng/mL EGF.

[3] = system: Pre-ovulatory COCs; test: EGFR-dependent meiotic resumption of pre-ovulatory COCs in presence of CNP-22 and EGF; conditions: for PB rate: 18 hours
Source text: as §1, §2
For experiments involving IVM, recombinant Epidermal growth Factor (r-EGF) (Roche; Mannheim, Germany) and recombinant mouse Epiregulin (EREG) (R&D systems Europe; Oxon, United Kingdom) were used as ovulatory stimuli and the cultures lasted 18 hrs.
as §3, §4
Pre-ovulatory COCs, retrieved from gonadotropin-primed mice, were placed in culture in absence (controls) or presence of 25 nM CNP-22 4 ng/mL EGF, and meiotic maturation was assessed at 2, 4 and 6 hours. While meiotic resumption increased from 2 to 6 hours in the control group, few GVBDs were induced in the CNP-22 EGF treated group (≤11%), within the same period of time (FIG. 2A).

[4] = system: COCs from early antral follicles; test: Cumulus-oocyte connections (transzonal projections) after capacitation culture with CNP or PDE3 inhibitor (Example 2); conditions: 48 h culture, F-actin staining of zona pellucida, no FSH; listed as CNP
Experimental: Basal culture medium for the culture of COCs (Pre-IVM and IVM phases) consisted of α-MEM, 2.5% FBS (both from Life Technologies, Gent, Belgium) and 5 ng/mL Insulin, 5 ug/mL Apo-Transferrin, 5 ng/mL Sodium selenite (All from Sigma, Schnelldorf, Germany). Capacitation medium consisted of basal medium supplemented with either 25 nM CNP or 1 μM Org9935 or 1 μM Cilostamide in combination with 10 nM E2 17-β-estradiol. CNP was obtained from Phoenix Europe (Karlsruhe, Germany), while Cilostamide was obtained from Enzo Life Sciences (Antwerpen, Belgium). Since the aim of the experiment was to make evident potential differences between CNP and PDE3-inhibitors, avoiding potential interference of FSH was crucial, therefore the latter was omitted from capacitation medium. When tested in the presence of FSH, the latter masked the effect of CNP on the connection between the oocyte and surrounding layers of cumulus cells, in having itself a contribution to said connection which is even apparent in the presence of a PDE3-inhibitor (data not shown). […]
In FIG. 7 average pixel intensity was used as a tool to quantify positive actin staining (TZP) going through zona pellucida. […]

[5] = system: Preovulatory COCs; test: Meiotic resumption after 18 hours, CNP-22 dose range (Example 4)
Experimental: The materials and methods used in this further example are accordingly in common with the materials and methods used in Example 1. Cumulus-oocyte complexes from 24-26 day-old mice were isolated from in vivo grown antral follicles post 48 h equine Chronic Gonadotropin stimulation (eCG, Folligon, Intervet, Oss, The Netherlands). Mice were injected with 2.5 IU eCG when they were 22-24 days-old. Intact COCs with at least 2 layers of cumulus cells were put in culture for a period of 18 hours in presence of the following doses of CNP: • Control (No CNP)* • 0.1 nM** • 1 nM • 10 nM • 50 nM** • 100 nM • 1 μM**
COCs were collected and cultured according to the previous dose experiments in mice, provided in the Example 1.
Differences in the rate of oocyte meiotic resumption (per meiotic stage) were assessed by ANOVA followed by a Tukey's Multiple Comparison Test, p<0.01. Percentages data were transformed (arcsine) before performing statistical analysis.
Oocyte meiotic arrest was confirmed by the presence of an intact germinal vesicle (GV) under the inverted microscope, […]

[6] = system: Immature COCs; test: Meiotic arrest of immature COCs from small antral follicles, 48 hours culture
Source text: as §1, §2
as §3, with “degenerated). […]” for “degenerated).”
Immature COCs were retrieved from small antral follicles of female mice aged 19-20 days-old and placed in culture for 48 hours in presence of 25 nM CNP-22 and presence or absence of 10 nM 17-β-estradiol; additionally the effects of the further addition of 2.5 or 5 mlU/mL mIU/ml FSH and/or 50 ng/mL GDF9 were evaluated.

[7] = system: cumulus-enclosed oocytes from early antral follicles; test: Developmental competence after capacitation culture with CNP or Cilostamide, IVM and IVF (Example 3); conditions: 48 hours capacitation culture, IVM with EGF, IVF
Experimental: Immature cumulus-oocyte complexes were isolated from early antral follicles (from unstimulated 19-20 day-old mice). COCs were placed in basal culture medium for a period of 48 hours in presence of either CNP or Cilostamide (PDE3-Inhibitor); similar to example 2.
Following the capacitation culture, COCs were matured in presence of Epidermal growth factor (EGF) and in-vitro fertilized. Post fertilization embryo development was evaluated.
Acquisition of oocyte competence under each condition was evaluated by their capacity to mature, fertilize (2-cell rate) and to produce good quality blastocyst (by day 5 of embryo culture).
Differences in the rate of fertilization and blastocyst formation between CNP and Cilostamide groups were assessed by chi-square.

[8] = 1 nM, 10 nM, 50 nM and 100 nM, 18 hours

CNP-53: CNP analogue; endogenous form of C-type natriuretic peptide containing a 53-amino acid sequence (DLRVDTKSRAAWARLLQEHPNARKYKGANKKGLSKGCFGLKLDRIGSMSGLGC; ends and bridges not checked; cysteine pairing not given here; UniProt P23582 74-126, looked up)
percentage of oocytes at the GVBD-stage vs control ([1]; 0.1 nM to 1 μM, 18 hours): No significant differences | maintaining oocytes arrested at the GV stage ([1]; 0.1 nM, 18 hours): suboptimal | oocytes under meiotic arrest (GV rate) ([1]; 1 nM CNP-53, 18 hours): 66% | proportion of oocytes extruding the first polar body vs control without CNP [1, 8]: significant different | oocytes under meiotic arrest (GV rate) ([1]; 10 nM CNP-53, 18 hours): 98% | oocytes under meiotic arrest (GV rate) ([1]; 50 nM CNP-53, 18 hours): 72% | oocytes under meiotic arrest (GV rate) ([1]; 100 nM CNP-53, 18 hours): 69% | maintaining oocytes arrested at the GV stage ([1]; 1 μM, 18 hours): suboptimal

C-type natriuretic peptide (GLSKGCFGLKLDRIGSMSGLGC; ends and bridges not checked; cysteine pairing not given here; UniProt P23582 105-126, looked up) [CNP-22, 22 amino acid C-type natriuretic peptide, obtained from Phoenix Europe]
GV rate at the end of culture ([2]; 1 nM CNP-22, 18 hours): 48% | GV rate at the end of culture ([2]; 10 nM CNP-22, 18 hours): 93% | GV rate at the end of culture ([2]; 100 nM CNP-22, 18 hours): 96% | time meiotic arrest is maintained ([2]; pre-ovulatory COCs): at least 24 hours | PB rate ([3]; 1 nM CNP-22 with 4 ng/mL EGF): 92% | PB rate ([3]; 10 nM CNP-22 with 4 ng/mL EGF): 35% | GVBDs induced ([3]; 25 nM CNP-22, 4 ng/mL EGF, 2 to 6 hours): ≤ 11% | occurrence of PB oocytes ([3]; 25 nM CNP-22, 4 ng/mL EGF, 24 hours): 93% | PB rate ([3]; 100 nM CNP-22 with 4 ng/mL EGF): 15% | delay of EGFR-induced meiotic resumption vs control ([3]; COCs kept under meiotic arrest by CNP): 6 h | transzonal projections / connectivity between oocytes and cumulus cells [4]: full with transzonal projections; also recorded: kept better the connectivity between oocytes and cumulus cells | percentage of oocytes at the GVBD-stage vs control ([5]; 0.1 nM to 1 μM, 18 hours): No significant differences | maintaining oocytes arrested at the GV stage ([5]; 0.1 nM, 18 hours): suboptimal | oocytes in meiotic arrest (GV rate) ([5]; 1 nM CNP-22, 18 hours): 80% | oocytes extruding the first polar body (PB rate) [5, 8]: low proportion or lack | oocytes in meiotic arrest (GV rate) ([5]; 10 nM CNP-22, 18 hours): 98% | oocytes in meiotic arrest (GV rate) ([5]; 50 nM CNP-22, 18 hours): 94% | oocytes in meiotic arrest (GV rate) ([5]; 100 nM CNP-22, 18 hours): 87% | maintaining oocytes arrested at the GV stage ([5]; 1 μM, 18 hours): suboptimal | rate of meiotic arrest in preovulatory oocytes ([5]; dose interval 1 nM to 100 nM): above 80% | oocytes maintained in meiotic arrest ([6]; 1 nM, 10 nM, 25 nM, or 50 nM CNP, oocytes from the smallest size of follicles): ~100% | GV rate ([6]; 25 nM CNP alone, 48 hours): 26% | maintenance of meiotic arrest in immature COCs ([6]; CNP-22 alone, culture up to 48 hours (data not shown)): can maintain meiotic arrest for 24 hours but not for 48 hours | oocytes under meiotic arrest (GV rate) ([1]; 25 nM CNP-22 positive control, 18 hours): 75% | fertilization rate, CNP vs Cilostamide [7]: no difference | blastocyst formed per fertilized egg, CNP vs Cilostamide ([7]; day 5): significantly higher
